What all share (test): biochemical
Holding throughout (design): Eurofins recombinant human kinase profiling, remaining kinase activity as % of control, 10 uM ATP
Settings in all cases: ATP 10 uM; read-out: %Ctrl@10 μM

For one assay, the target named is DMPK(h) (Homo sapiens, UniProt Q09013). In outline:
(§1)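 Activity measured in a commercial panel of 401 recombinant human protein kinases run as a kinase profiling service.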

In a further assay the target is T1, PKCι(h) (Homo sapiens, UniProt P41743).
T1 construct: gene PRKCI
In outline: as §1

A further assay concerns the target T2, SAPK2a(h) (Homo sapiens, UniProt Q16539).
T2 construct: gene MAPK14
In outline: as §1

The target of the next assay is T3, PKCβII(h) (Homo sapiens, UniProt P05771).
T3 construct: gene PRKCB; isoform beta II
T3 sequence (P05771 whole entry, canonical isoform): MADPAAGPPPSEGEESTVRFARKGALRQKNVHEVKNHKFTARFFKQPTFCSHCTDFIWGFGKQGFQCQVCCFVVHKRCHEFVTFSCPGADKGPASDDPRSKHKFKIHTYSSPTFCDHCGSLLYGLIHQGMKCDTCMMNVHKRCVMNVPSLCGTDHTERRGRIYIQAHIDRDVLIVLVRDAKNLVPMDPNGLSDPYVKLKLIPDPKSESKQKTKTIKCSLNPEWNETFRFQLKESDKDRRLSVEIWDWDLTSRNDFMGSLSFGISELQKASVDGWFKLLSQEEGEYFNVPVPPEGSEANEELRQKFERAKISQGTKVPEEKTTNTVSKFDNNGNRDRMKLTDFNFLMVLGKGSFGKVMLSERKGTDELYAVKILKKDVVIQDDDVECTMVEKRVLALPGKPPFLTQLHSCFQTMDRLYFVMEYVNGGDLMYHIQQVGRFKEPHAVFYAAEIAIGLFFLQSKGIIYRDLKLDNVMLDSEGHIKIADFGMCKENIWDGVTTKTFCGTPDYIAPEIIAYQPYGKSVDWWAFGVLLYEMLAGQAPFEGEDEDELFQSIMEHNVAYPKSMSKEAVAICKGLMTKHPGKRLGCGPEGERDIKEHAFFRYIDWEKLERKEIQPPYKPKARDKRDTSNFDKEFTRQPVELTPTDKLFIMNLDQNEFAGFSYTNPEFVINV
The method, boiled down: as §1

Another assay has as its target T4, MST3(h) (Homo sapiens, UniProt Q9Y6E0).
T4 construct: gene STK24
The method, boiled down: as §1

The next assay has as its target Haspin(h) (Homo sapiens, UniProt Q8TF76). In outline:
as §1

A further assay addresses T5, MST1(h) (Homo sapiens, UniProt Q13043).
T5 construct: gene STK4
The method, boiled down:
as §1

For the next assay, the target named is CDK4/cyclinD3(h) (Homo sapiens, UniProt P11802). In outline:
as §1

In another assay the target is T6, Abl(T315I)(h) (Homo sapiens, UniProt P00519, T315I).
T6 construct: gene ABL1
The method, boiled down:
as §1

In another assay the target is T7, MRCKβ(h) (Homo sapiens, UniProt Q9Y5S2).
T7 construct: gene CDC42BPB
The method, boiled down: as §1

For the next assay, the target named is T8, MAPKAP-K3(h) (Homo sapiens, UniProt Q16644).
T8 construct: gene MAPKAPK3
T8 sequence (Q16644 whole entry): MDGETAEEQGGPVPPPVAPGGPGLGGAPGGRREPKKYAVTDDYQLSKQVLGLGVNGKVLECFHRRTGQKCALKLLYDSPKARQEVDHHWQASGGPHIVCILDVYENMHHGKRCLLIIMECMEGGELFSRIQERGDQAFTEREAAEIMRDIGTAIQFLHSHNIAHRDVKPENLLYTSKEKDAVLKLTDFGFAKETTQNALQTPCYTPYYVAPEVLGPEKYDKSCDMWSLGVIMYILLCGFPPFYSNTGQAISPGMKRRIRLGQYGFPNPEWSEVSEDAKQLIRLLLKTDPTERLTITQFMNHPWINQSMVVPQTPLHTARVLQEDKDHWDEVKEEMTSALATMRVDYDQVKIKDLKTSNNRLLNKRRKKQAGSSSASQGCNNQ
The method, boiled down:
as §1

Another assay addresses EphA5(h) (Homo sapiens, UniProt P54756). The method, boiled down: as §1
A further assay addresses T9, Rse(h) (Homo sapiens, UniProt Q06418).
T9 construct: gene TYRO3
In outline:
as §1

Another assay deals with CDK16/cyclinY(h) (Homo sapiens, UniProt Q00536). The method, boiled down:
as §1

The target of the next assay is CLK2(h) (Homo sapiens, UniProt P49760). The method, boiled down: as §1
Another assay has as its target MAK(h) (Homo sapiens, UniProt P20794). The method, boiled down: as §1
For another assay, the target named is T10, HPK1(h) (Homo sapiens, UniProt Q92918).
T10 construct: gene MAP4K1
In outline: as §1

The target of another assay is T11, MEKK2(h) (Homo sapiens, UniProt Q9Y2U5).
T11 construct: gene MAP3K2
T11 sequence (Q9Y2U5 whole entry): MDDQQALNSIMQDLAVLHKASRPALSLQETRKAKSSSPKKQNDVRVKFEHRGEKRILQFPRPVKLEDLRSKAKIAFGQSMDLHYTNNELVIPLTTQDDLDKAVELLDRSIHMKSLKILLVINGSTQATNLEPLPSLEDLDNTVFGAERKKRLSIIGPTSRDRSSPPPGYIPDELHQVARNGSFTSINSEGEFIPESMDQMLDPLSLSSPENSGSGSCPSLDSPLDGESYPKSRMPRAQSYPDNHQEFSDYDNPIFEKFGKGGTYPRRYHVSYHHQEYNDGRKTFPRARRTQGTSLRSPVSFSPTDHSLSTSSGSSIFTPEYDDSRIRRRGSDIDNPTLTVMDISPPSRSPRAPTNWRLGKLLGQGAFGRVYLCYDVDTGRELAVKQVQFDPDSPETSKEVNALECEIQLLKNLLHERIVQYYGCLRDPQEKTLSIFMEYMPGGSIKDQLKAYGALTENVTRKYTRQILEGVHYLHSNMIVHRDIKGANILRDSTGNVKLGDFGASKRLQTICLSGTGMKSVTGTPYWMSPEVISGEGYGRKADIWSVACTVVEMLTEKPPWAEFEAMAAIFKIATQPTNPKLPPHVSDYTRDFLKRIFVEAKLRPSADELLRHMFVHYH
In outline: as §1

A further assay addresses ALK(h) (Homo sapiens, UniProt Q9UM73). The method, boiled down:
as §1

The target in the next assay is T12, Pim-2(h) (Homo sapiens, UniProt Q9P1W9).
T12 construct: gene PIM2
In outline: as §1

Another assay has as its target TAF1L(h) (Homo sapiens, UniProt Q8IZX4). In outline:
as §1

The target of a further assay is T13, cKit(h) (Homo sapiens, UniProt P10721).
T13 construct: gene KIT
T13 sequence (P10721 whole entry): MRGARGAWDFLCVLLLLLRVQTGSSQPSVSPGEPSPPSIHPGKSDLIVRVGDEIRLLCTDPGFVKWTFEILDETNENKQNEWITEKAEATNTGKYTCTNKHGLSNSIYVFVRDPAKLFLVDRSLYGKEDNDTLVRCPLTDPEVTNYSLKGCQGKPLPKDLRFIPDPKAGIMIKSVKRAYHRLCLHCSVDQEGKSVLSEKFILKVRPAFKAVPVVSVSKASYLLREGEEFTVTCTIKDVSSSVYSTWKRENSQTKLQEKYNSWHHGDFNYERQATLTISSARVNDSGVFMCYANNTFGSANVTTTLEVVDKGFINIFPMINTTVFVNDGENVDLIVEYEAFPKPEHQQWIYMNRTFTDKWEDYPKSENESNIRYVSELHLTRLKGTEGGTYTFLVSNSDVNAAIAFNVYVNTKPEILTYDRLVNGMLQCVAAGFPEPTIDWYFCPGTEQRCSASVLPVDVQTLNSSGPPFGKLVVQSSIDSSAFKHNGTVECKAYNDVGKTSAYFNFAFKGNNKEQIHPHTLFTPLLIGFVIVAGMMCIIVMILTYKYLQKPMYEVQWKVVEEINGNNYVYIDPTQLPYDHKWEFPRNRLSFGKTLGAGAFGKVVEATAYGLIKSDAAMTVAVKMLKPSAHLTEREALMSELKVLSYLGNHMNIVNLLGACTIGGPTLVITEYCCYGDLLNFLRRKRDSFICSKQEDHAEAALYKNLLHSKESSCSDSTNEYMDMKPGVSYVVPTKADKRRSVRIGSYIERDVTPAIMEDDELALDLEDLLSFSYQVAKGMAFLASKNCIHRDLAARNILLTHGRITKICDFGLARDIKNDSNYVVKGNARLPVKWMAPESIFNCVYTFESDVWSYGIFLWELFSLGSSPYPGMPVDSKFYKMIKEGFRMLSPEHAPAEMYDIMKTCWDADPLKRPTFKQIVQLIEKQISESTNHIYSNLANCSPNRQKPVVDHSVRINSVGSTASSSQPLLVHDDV
In outline: as §1

A further assay addresses GRK3(h) (Homo sapiens, UniProt P35626). The method, boiled down:
as §1

The structures appear in SMILES notation.

T2 sequence (Q16539 whole entry): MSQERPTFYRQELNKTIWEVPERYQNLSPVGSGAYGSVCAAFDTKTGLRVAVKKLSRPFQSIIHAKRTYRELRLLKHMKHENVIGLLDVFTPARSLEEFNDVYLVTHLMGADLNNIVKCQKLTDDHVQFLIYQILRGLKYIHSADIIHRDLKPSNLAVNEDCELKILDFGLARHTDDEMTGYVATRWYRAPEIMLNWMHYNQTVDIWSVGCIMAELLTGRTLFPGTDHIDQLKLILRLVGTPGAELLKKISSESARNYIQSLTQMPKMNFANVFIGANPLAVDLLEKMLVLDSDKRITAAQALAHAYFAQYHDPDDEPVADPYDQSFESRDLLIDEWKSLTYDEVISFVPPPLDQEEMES
Chain of MAK(h) (P20794 whole entry): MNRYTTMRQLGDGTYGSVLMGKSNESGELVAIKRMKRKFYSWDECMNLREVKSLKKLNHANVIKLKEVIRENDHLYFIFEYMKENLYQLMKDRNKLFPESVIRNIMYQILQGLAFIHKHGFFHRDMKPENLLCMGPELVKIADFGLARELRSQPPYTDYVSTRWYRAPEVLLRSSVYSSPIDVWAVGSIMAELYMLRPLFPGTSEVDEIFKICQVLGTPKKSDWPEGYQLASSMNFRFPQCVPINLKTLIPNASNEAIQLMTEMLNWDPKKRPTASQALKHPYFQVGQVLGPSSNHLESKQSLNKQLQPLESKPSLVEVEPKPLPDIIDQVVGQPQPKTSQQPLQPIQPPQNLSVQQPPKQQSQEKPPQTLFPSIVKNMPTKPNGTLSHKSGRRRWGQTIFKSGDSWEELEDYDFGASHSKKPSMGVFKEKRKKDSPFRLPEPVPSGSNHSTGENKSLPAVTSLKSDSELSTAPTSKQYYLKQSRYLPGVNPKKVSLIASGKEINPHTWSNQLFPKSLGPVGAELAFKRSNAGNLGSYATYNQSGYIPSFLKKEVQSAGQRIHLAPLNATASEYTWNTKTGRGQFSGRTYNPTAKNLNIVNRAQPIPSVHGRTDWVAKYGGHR
T5 sequence (Q13043 whole entry): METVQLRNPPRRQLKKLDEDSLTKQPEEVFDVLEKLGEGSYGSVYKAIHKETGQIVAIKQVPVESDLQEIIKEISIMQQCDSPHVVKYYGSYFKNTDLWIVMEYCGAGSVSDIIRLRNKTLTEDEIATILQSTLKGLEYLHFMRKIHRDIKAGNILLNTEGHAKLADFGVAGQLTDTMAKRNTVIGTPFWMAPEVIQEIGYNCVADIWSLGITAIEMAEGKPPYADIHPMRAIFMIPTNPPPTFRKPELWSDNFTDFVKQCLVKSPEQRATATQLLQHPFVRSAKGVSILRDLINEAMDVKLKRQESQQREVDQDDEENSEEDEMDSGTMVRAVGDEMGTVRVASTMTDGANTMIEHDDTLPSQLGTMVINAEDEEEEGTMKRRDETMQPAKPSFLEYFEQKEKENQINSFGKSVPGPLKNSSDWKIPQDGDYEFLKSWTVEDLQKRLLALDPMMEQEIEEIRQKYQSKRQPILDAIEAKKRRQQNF
T9 sequence (Q06418 whole entry): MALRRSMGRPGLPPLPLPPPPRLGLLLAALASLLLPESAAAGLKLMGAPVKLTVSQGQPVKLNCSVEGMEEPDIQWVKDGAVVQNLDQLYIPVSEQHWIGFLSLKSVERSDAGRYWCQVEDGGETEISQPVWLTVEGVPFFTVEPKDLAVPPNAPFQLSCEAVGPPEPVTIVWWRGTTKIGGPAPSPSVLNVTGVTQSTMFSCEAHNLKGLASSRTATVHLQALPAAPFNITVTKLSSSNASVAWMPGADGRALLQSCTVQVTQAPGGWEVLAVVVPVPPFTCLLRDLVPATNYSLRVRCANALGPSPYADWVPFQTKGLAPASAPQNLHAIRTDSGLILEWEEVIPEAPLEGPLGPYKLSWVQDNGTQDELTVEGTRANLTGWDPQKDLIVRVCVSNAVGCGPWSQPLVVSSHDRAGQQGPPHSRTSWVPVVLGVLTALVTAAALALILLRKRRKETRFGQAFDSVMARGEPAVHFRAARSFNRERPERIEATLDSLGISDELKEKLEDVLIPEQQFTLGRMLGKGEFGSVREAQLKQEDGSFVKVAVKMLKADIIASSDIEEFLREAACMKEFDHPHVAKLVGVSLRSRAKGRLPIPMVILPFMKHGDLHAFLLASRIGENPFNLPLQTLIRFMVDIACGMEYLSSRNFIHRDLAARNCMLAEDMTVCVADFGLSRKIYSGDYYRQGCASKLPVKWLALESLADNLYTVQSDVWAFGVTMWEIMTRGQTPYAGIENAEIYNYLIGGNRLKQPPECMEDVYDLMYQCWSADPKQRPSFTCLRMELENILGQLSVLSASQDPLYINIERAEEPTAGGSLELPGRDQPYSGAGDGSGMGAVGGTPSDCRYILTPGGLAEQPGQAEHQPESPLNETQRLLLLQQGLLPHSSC

On to `C1=C(c2nc(-c3cnn(C4CCNCC4)c3)cn3cc(-c4ccccc4)nc23)CCOC1` [YL-939], for which the remaining activity at 10 µM at DMPK(h) was found to be 107%; on PKCι(h) it was 85%; at SAPK2a(h), 103%; at PKCβII(h) it was 95%; on MST3(h), 97%; on Haspin(h), 100%. For the same compound, the remaining activity at 10 µM was determined as 91% on MST1(h); 80% at CDK4/cyclinD3(h); 119% at Abl(T315I)(h); 84% on MRCKβ(h); 102% at MAPKAP-K3(h); 96% at EphA5(h). In addition, the remaining activity at 10 µM was 98% on Rse(h); 80% on CDK16/cyclinY(h); 71% on CLK2(h); 74% on MAK(h); 88% at HPK1(h); 100% on MEKK2(h). In addition, the remaining activity at 10 µM on ALK(h) came out at 106%; at Pim-2(h), 84%; at TAF1L(h), 84%; at cKit(h), 81%; on GRK3(h) it was 92%.

These data come from paper PMC9719519, “Non-classical ferroptosis inhibition by a small molecule targeting PHB2” (Nature Communications, 2022).
